Earlier results, collected in patent publication US11975079B2, “Truncated Evans Blue modified fibroblast activation protein inhibitor, preparation method and application thereof” (YANTAI LANNACHENG BIOTECHNOLOGY CO., LTD., priority 2021, dated 2024).

- decrease of retained dose at tumor site (24 hours later): about 75%
SMILES: N#C[C@@H]1CCCN1C(=O)CNC(=O)c1ccnc2ccc(OCCCN3CCN(C(=O)CN4CCN(CC(=O)O)CCN(CC(=O)O)CCN(CC(=O)O)CC4)CC3)cc12 [FAPI-02]
- clearance in blood circulation (according to current reports): completely cleared in blood circulation within one hour
